Assay results as given in US20260226128A1, “Capped Peptides and Methods for Using the Same” (The Board of Trustees of the Leland Stanford Junior …, priority 2023, published 2026).

Tested on: diet induced obese mice
Experiment: Food intake 2 hours post injection of CAP-GDF15 human homologue
Type: in vivo, mouse
Conditions: 50 mg/kg, single injection, versus vehicle
Protocol: FIG. 12. Human CAP-GDF15 homologue inhibits food intake. Food intake of diet induced obese mice 2 hours post injection with vehicle or 50 mg/kg CAP-GDF15 human homologue (pGlu-[…]-NH2). (N=8 mice/group, error bars are SEM, and P values calculated with two-sided Student's T test.)
Human CAP-GDF15 treatments in mice. Singly housed diet induced obese (on high fat diet, 4 months old, male, C57BL/6J, Jackson cat #380050) mice were injected with vehicle (18:1:1 Saline: DMSO: Kolliphor EL) or 50 mg/kg CAP-GDF15 human homologue (pGlu-[…]-NH2) once at ~5 μm. Food weight was measured before injection and 2 hours post to calculated food intake. (N=8 mice/group)

In the case of “pGlu-LELHLRPQAAR-NH2 (HELM PEPTIDE1{[Glp].L.E.L.H.L.R.P.Q.A.A.R.[am]}$$$$V2.0; SMILES CC(C)C[C@H](NC(=O)[C@@H]1CCC(=O)N1)C(=O)N[C@@H](CCC(=O)O)C(=O)N[C@@H](CC(C)C)C(=O)N[C@@H](Cc1c[nH]cn1)C(=O)N[C@@H](CC(C)C)C(=O)N[C@@H](CCCNC(=N)N)C(=O)N1CCC[C@H]1C(=O)N[C@@H](CCC(N)=O)C(=O)N[C@@H](C)C(=O)N[C@@H](C)C(=O)N[C@@H](CCCNC(=N)N)C(N)=O) [human homologue of CAP-GDF15]”, the “food intake 2 hours post injection” value is reported as “acutely inhibits food intake”.
